Measured values from patent US20250296909A1, “NOVEL BENZENE DERIVATIVE AND IMMUNOSUPPRESSION-RELATED USE THEREOF” (PROVIBIO CO., LTD., priority 2021, published 2025).
Read-outs that look alike come from different tables or passages of the source.

How the values were obtained:
spleen T cells [1] = experiment: Cytokine secretion by anti-CD3/CD28-activated T cells (Cytometric Bead Array); format: cell-based, C57BL/6 mice; conditions: 30 μM; for secretion of IL-2: 24 hours after treatment, FIG. 3; for secretion of IFN-γ / secretion of IL-17A / secretion of TNF-α: 72 hours after treatment
Experimental: To confirm the effect of compounds of the present invention on the secretion of cytokines by T cells, the following experiment was conducted.
Spleens were harvested and minced from C57BL/6 mice at 7 weeks of age, and single cells were isolated using a strainer (40 μm pore size, SPL). Red blood cells were removed using ACK (Ammonium-Chloride-Potassium) lysis buffer to isolate only leukocytes. These were then reacted with 10 v/v % CD90.2 microbeads (130-121-278, Miltenyi Biotech.) at 4° C. for 20 minutes, resulting in the isolation of spleen T cells from magnetic-based purification. The T cells were cultured in a 96-well plate at an amount of 2×10^5 cells/well. For T cell activation, each well was treated with anti-CD3/CD28 antibodies at a concentration of 1 μg/mL. Subsequently, Vehicle (DMSO) and compounds (Compound 14, Compound 19, Compound 26, Compound 31, Compound 35, Compound 40, Compound 41, Compound 56, Compound 69, Compound 75) at a concentration of 30 μM were treated in each well, and it was cultured at 37° C. in a 5% CO2 incubator. After 24 and 72 hours, the T cell culture medium was taken, and centrifugation was performed at 13,000 rpm for 10 minutes to obtain the supernatant.
To measure the concentration of cytokines present in the T cell culture medium, Mouse Th1/Th2/Th17 Cytokine CBA Kit (Cytometric Bead Array kit) 560485 from BD Science was utilized for flow cytometry analysis. The secretion levels of IL-2 at 24 hours after each drug treatment, and IFN-γ, TNF-α, and IL-17A at 72 hours were measured after each drug treatment.

[2] = system: T lymphocyte cell line Jurkat E6-1; experiment: Cytotoxicity experiment (CCK-8, relative cell survival); format: cell-based; conditions: 24 hours, untreated cells = 100%
Experimental: To evaluate the cytotoxicity of the compound according to the present invention, the following experiment was conducted.
The T lymphocyte cell line Jurkat E6-1, purchased from the Korean Cell Line Bank, was cultured in RPMI-1640 medium comprising 10% FBS, 100 U/mL penicillin, and 100 μg/mL streptomycin. After culturing, the cells were harvested and centrifuged at 1,300 rpm for 5 minutes. After removal of the supernatant, the cells were resuspended in the same medium at a concentration of approximately 2.2×10^5 cells/mL, and 90 μL of the cell suspension was distributed per well into a 96-well plate (Costar 96 well cell culture plate, Corning). After treating 10 μL of each compound at different concentrations onto the respective wells of the plate, it was cultured for 24 hours at 37° C. in a 5% CO2 incubator. Subsequently, 10 μL of CCK-8 was added to each well, and it was cultured again for 2 hours at 37° C. in a 5% CO2 incubator. Absorbance was then measured at 450 nm to determine the relative cell survival rate compared to untreated cells, as shown in Table 4.
The values listed in Table 4 represent the relative cell survival rates in the groups treated with each compound at different concentrations, with the cell survival rate of untreated cells set as 100%.

spleen T cells [3] = experiment: T cell proliferation inhibition (CFSE, FACS), CD3/CD28-activated spleen T cells; format: cell-based, C57BL/6 mice; conditions: for inhibition at 10 µM / inhibition at 30 µM / inhibition at 50 µM: Mus musculus, T-cell, read-out: Proliferation inhibition rate (%)
Experimental: To investigate whether the compounds obtained in the Preparation Example have an inhibitory effect on T cell proliferation, the T cell proliferation was determined ex vivo using the fluorescent dye carboxyfluorescein diacetate succinimidyl ester (CFSE), which binds to intracellular molecules by covalent bonds.
Spleens were harvested and minced from C57BL/6 mice at 7 weeks of age, and then single cells were isolated using a strainer (40 μm pore size, SPL). Red blood cells were removed using ACK (Ammonium-Chloride-Potassium) lysis buffer to isolate only leukocytes. Subsequently, CD90.2 microbeads (130-121-278, Miltenyi Biotech.) were added, and subjected to react at 4° C. for 20 minutes. After that, spleen T cells were isolated using a MACS Magnetic Stand and LS column. The isolated T cells from the spleen were resuspended in 1 mL of Free media (RPMI-1640+200 U/mL penicillin+200 μg/mL streptomycin), followed by the addition of 0.3 μL of CFSE (10 mM), and reacted at 37° C. for 5 minutes. Subsequently, 10 mL of Free media was added to stop the reaction, and the cells were centrifuged to obtain the cell pellet. RPMI 1640 medium containing 10% FBS, 100 U/mL penicillin, and 100 μg/mL streptomycin was added to suspend the cells, and 2×10^5 cells per well were seeded into a 96-well plate and T cells were activated by treatment with CD3 and CD28 antibodies (each at 0.5 μg/mL).
The compound diluted in DMSO was treated in triplicate at concentrations of 10 μM, 30 μM, and 50 μM, respectively. After incubation at 37° C. with 5% CO2 for 3 days, cell proliferation levels were determined using a FACS Canto machine.
In the FACS graph of FIG. 1, the y-axis represents the quantity (number) of cells, while the x-axis represents the fluorescence level of the cells. […] This reduction in CFSE fluorescence results in a leftward shift along the x-axis in the graph. This indicates cell proliferation.
To collectively indicate the proliferation inhibition rate for the experimental results, the relative value of the proliferation amount after compound administration to the proliferation amount after CD3/CD28+DMSO administration was calculated. Subsequently, it was converted into an inhibition amount and expressed as a percentage, thereby determining the proliferation inhibition rate. Specifically, the proliferation inhibition rate was calculated as follows: […]

[4] = 72 h, Table 2, 10 μM, 3 days, relative to CD3/CD28+DMSO
[5] = 72 h, Table 2, 30 μM, 3 days, relative to CD3/CD28+DMSO
[6] = 72 h, Table 2, 50 μM, 3 days, relative to CD3/CD28+DMSO
[7] = Table 2, 10 μM, 3 days, relative to CD3/CD28+DMSO
[8] = Table 2, 30 μM, 3 days, relative to CD3/CD28+DMSO
[9] = Table 2, 50 μM, 3 days, relative to CD3/CD28+DMSO

| Structure (SMILES) | secretion of IL-2 (spleen T cells [1]) | secretion of IFN-γ (spleen T cells [1]) | secretion of IL-17A (spleen T cells [1]) | secretion of TNF-α (spleen T cells [1]) | Relative cell survival rate (%) ([2]; 10 μM) | Relative cell survival rate (%) ([2]; 20 μM) | Relative cell survival rate (%) ([2]; 30 μM) | Relative cell survival rate (%) ([2]; 50 μM) | inhibition at 10 µM (spleen T cells [3]; [4]) [%] | inhibition at 30 µM (spleen T cells [3]; [5]) [%] | inhibition at 50 µM (spleen T cells [3]; [6]) [%] | Proliferation inhibition rate (%) (spleen T cells [3]; [7]) | Proliferation inhibition rate (%) (spleen T cells [3]; [8]) | Proliferation inhibition rate (%) (spleen T cells [3]; [9]) | inhibition at 10 µM (spleen T cells [3]; Table 3 (compounds not belonging to Formula 1), 10 μM) [%] | inhibition at 30 µM (spleen T cells [3]; Table 3 (compounds not belonging to Formula 1), 30 μM) [%] | inhibition at 50 µM (spleen T cells [3]; Table 3 (compounds not belonging to Formula 1), 50 μM) [%] | cell proliferation read by FACS (FIG. 2) (spleen T cells [3]; concentrations ranging from 10 to 30 μM) |
| --- | --- | --- | --- | --- | --- | --- | --- | --- | --- | --- | --- | --- | --- | --- | --- | --- | --- | --- |
| CCCCCCCCCCCCNC(=O)c1cccnc1 [Compound 19] | significant decrease | significant decrease | significant decrease | significant decrease | 94 | 87 | 82 | 83 | 19 | 99 | 100 |  |  |  |  |  |  |  |
| CCCCCCCCCCCCNC(=O)c1cccnc1Oc1ccc(Cl)cc1 [Compound 26] | significant decrease | significant decrease | significant decrease | significant decrease | 101 | 97 | 85 | 82 |  |  |  | 73 | 100 | 100 |  |  |  |  |
| CCCCCCCCCCCCNS(=O)(=O)c1ccccc1Br [Compound 35] | significant decrease | significant decrease | significant decrease | significant decrease | 97 | 89 | 87 | 86 |  |  |  | 85 | 92 | 93 |  |  |  |  |
| CCCCCCCCCCCCNS(=O)(=O)c1c(Cl)cccc1Cl [Compound 40] | significant decrease | significant decrease | significant decrease | significant decrease | 105 | 99 | 96 | 86 |  |  |  | 86 | 97 | 97 |  |  |  |  |
| CCCCCCCCCCCCNC(=O)c1ncccc1N [Compound 67] |  |  |  |  | 94 | 93 | 93 | 92 | 35 | 88 | 100 |  |  |  |  |  |  |  |
| CCCCCCCCCCCCNC(=O)c1ccncc1N [Compound 68] |  |  |  |  | 92 | 91 | 88 | 82 | 57 | 67 | 100 |  |  |  |  |  |  |  |
| CCCCCCCCCCCCNC(=O)c1cccnc1O [Compound 70] |  |  |  |  | 119 | 122 | 124 | 125 | 29 | 78 | 98 |  |  |  |  |  |  |  |
| CCCCCCCCCCCCNC(=O)c1cnccc1N [Compound 71] |  |  |  |  | 101 | 94 | 92 | 88 | 100 | 100 | 100 |  |  |  |  |  |  |  |
| CCCCCCCCCCCCNC(=O)c1ncccc1Br [Compound 73] |  |  |  |  | 94 | 97 | 98 | 104 | 32 | 76 | 86 |  |  |  |  |  |  |  |
| CCCCCCCCNC(=O)c1cccnc1N [Compound 74] |  |  |  |  | 101 | 84 | 81 | 77 | 66 | 91 | 95 |  |  |  |  |  |  |  |
| CCCCCCCCCCCCNC(=O)c1cccnc1Br [Compound 76] |  |  |  |  | 115 | 95 | 92 | 70 |  |  |  | 36 | 49 | 65 |  |  |  |  |
| CCCCCCCCCCCCNC(=O)c1cccnc1C(F)(F)F [Compound 77] |  |  |  |  | 116 | 124 | 123 | 123 |  |  |  | 24 | 47 | 66 |  |  |  |  |
| CCCCNC(=O)c1ccccc1F [Compound 81] |  |  |  |  | 103 | 105 | 107 | 108 |  |  |  |  |  |  | 0 | 2 | 22 |  |
| CCCCCCCCNCCCNC(=O)c1nccnc1Cl [Compound 82] |  |  |  |  | 95 | 90 | 97 | 88 | 60 | 80 | 85 |  |  |  |  |  |  |  |
| CCCCCCCCCCCCNC(=O)c1ccccc1-n1cccc1 [Compound 84] |  |  |  |  | 96 | 94 | 96 | 94 | 89 | 96 | 100 |  |  |  |  |  |  | inhibition of cell proliferation |
